# Values of other authors, collected in patent US6713950B2, “Low volatility slurry for emission mix powder” (General Electric Company, priority 2001, dated 2004).
# System: rats
substance,measurement,value
polyethylene glycol 200 [PEG 200],oral LD50,28000 mg/kg
